Measured values as given in PubChem BioAssay AID1963874 (Molecular Pharmacology Branch, DTP, NCI, 2024).

Test system: 253994-281-T-J1-PDC KRAS-mutant spheroids with HUVEC/MSC, viability
Experiment: Anticancer human tumor 253994-281-T-J1-PDC patient-derived colorectal carcinoma cell line growth inhibition [KRAS2]
Details: for IC50: curve of first compound; for viability, T/C: stronger effect = lower value
In short: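 Combination screen of spheroid viability in tumor-cell co-cultures with endothelial (HUVEC) and mesenchymal stem cell stroma. Each agent was tested in half-log dilutions, topping at clinical Cmax or at 10 microM without a known Cmax.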

[1] = second compound 0.1 µM, first compound 0.0316 µM
[2] = second compound 0.1 µM, first compound 0.1 µM
[3] = second compound 0.1 µM, first compound 0.316 µM
[4] = second compound 0.1 µM, first compound 1 µM
[5] = second compound 0.1 µM, first compound 3.16 µM
[6] = second compound 0.1 µM, first compound 10 µM
[7] = second compound 0.316 µM, first compound 0.0316 µM
[8] = second compound 0.316 µM, first compound 0.1 µM
[9] = second compound 0.316 µM, first compound 0.316 µM
[10] = second compound 0.316 µM, first compound 1 µM
[11] = second compound 0.316 µM, first compound 3.16 µM
[12] = second compound 0.316 µM, first compound 10 µM
[13] = second compound 1 µM, first compound 0.0316 µM
[14] = second compound 1 µM, first compound 0.1 µM
[15] = second compound 1 µM, first compound 0.316 µM
[16] = second compound 1 µM, first compound 1 µM
[17] = second compound 1 µM, first compound 3.16 µM
[18] = second compound 1 µM, first compound 10 µM
[19] = second compound 3.16 µM, first compound 0.0316 µM
[20] = second compound 3.16 µM, first compound 0.1 µM
[21] = second compound 3.16 µM, first compound 0.316 µM
[22] = second compound 3.16 µM, first compound 1 µM
[23] = second compound 3.16 µM, first compound 3.16 µM
[24] = second compound 3.16 µM, first compound 10 µM
[25] = second compound 10 µM, first compound 0.0316 µM
[26] = second compound 10 µM, first compound 0.1 µM
[27] = second compound 10 µM, first compound 0.316 µM
[28] = second compound 10 µM, first compound 1 µM
[29] = second compound 10 µM, first compound 3.16 µM
[30] = second compound 10 µM, first compound 10 µM
[31] = second compound 0.1 µM, first compound 0.01 µM
[32] = second compound 0.316 µM, first compound 0.01 µM
[33] = second compound 1 µM, first compound 0.01 µM
[34] = second compound 3.16 µM, first compound 0.01 µM
[35] = second compound 10 µM, first compound 0.01 µM
[36] = second compound 0.1 µM, first compound 0.00316 µM
[37] = second compound 0.316 µM, first compound 0.00316 µM
[38] = second compound 1 µM, first compound 0.00316 µM
[39] = second compound 3.16 µM, first compound 0.00316 µM
[40] = second compound 10 µM, first compound 0.00316 µM
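Also: spheroids exposed to agents for seven days before readout.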
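For viability, T/C in this document: percent of DMSO vehicle control viability.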

Row | SMILES | IC50 (second compound 0.1 µM) [µM] | IC50 (second compound 0.316 µM) [µM] | IC50 (second compound 1 µM) [µM] | IC50 (second compound 3.16 µM) [µM] | IC50 (second compound 10 µM) [µM] | viability, T/C [1] [%] | viability, T/C [2] [%] | viability, T/C [3] [%] | viability, T/C [4] [%] | viability, T/C [7] [%] | viability, T/C [8] [%] | viability, T/C [9] [%] | viability, T/C [10] [%] | viability, T/C [13] [%] | viability, T/C [14] [%] | viability, T/C [15] [%] | viability, T/C [19] [%] | viability, T/C [20] [%] | viability, T/C [25] [%] | viability, T/C [26] [%] | further results
1 | CC(C)NCC(C(=O)N1CCN(c2ncnc3c2C(C)CC3O)CC1)c1ccc(Cl)cc1 (stereo not given) + CNCc1ccccc1-c1csc(C(C)Nc2nc(C)nc3cc(OC)c(OC)cc23)c1 | > 10 | > 10 | > 10 | < 0.0316 | < 0.0316 | 110 | 109 | 99.6 | 111 | 110 | 96 | 98.2 | 113 | 121 | 108 | 88.1 | 38.1 | 29.8 | 0.17 | 0.14 | viability, T/C [5]: 94.7%; viability, T/C [6]: 105%; viability, T/C [11]: 107%; viability, T/C [12]: 101%; viability, T/C [16]: 103%; viability, T/C [17]: 95.2%; viability, T/C [18]: 99.4%; viability, T/C [21]: 24%; viability, T/C [22]: 34.8%; viability, T/C [23]: 24.1%; viability, T/C [24]: 40.1%; viability, T/C [27]: 0.14%; viability, T/C [28]: 0.16%; viability, T/C [29]: 0.13%; viability, T/C [30]: 0.27%
2 | CC1COCCN1c1cc(-c2ccnn2C)c2ccnc(-c3ccn[nH]3)c2n1 (stereo not given) + CNCc1ccccc1-c1csc(C(C)Nc2nc(C)nc3cc(OC)c(OC)cc23)c1 | > 3.16 | > 3.16 | 0.296 | < 0.01 | < 0.01 | 106 | 76.1 | 50.7 | 60.2 | 91.5 | 73.5 | 46.5 | 55.9 | 85.5 | 67.5 | 47 | 42 | 27.3 | 0.21 | 0.17 | viability, T/C [31]: 85.8%; viability, T/C [5]: 52.4%; viability, T/C [32]: 108%; viability, T/C [11]: 57.1%; viability, T/C [33]: 89.5%; viability, T/C [16]: 54.8%; viability, T/C [17]: 42.1%; viability, T/C [34]: 42.9%; viability, T/C [21]: 17.9%; viability, T/C [22]: 24%; viability, T/C [23]: 14.9%; viability, T/C [35]: 0.59%; viability, T/C [27]: 0.19%; viability, T/C [28]: 0.16%; viability, T/C [29]: 0.23%
3 | CCN1CCN(Cc2ccc(Nc3ncc(F)c(-c4cc(F)c5nc(C)n(C(C)C)c5c4)n3)nc2)CC1 + CNCc1ccccc1-c1csc(C(C)Nc2nc(C)nc3cc(OC)c(OC)cc23)c1 | 0.683 | 0.53 | 0.42 | < 0.00316 | < 0.00316 | 84.1 | 78.7 | 71.4 | 39.8 | 73.5 | 85.5 | 64.7 | 31.4 | 78.2 | 76.3 | 62.5 | 36.4 | 20.3 | 0.19 | 0.14 | viability, T/C [36]: 97.4%; viability, T/C [31]: 82.5%; viability, T/C [37]: 101%; viability, T/C [32]: 78%; viability, T/C [38]: 82.7%; viability, T/C [33]: 82.2%; viability, T/C [16]: 13.5%; viability, T/C [39]: 44.8%; viability, T/C [34]: 37%; viability, T/C [21]: 11.9%; viability, T/C [22]: 0.18%; viability, T/C [40]: 0.2%; viability, T/C [35]: 0.39%; viability, T/C [27]: 0.34%; viability, T/C [28]: 0.22%
4 | CCNC(=O)CC1N=C(c2ccc(Cl)cc2)c2cc(OC)ccc2-n2c(C)nnc21 (stereo not given) + CNCc1ccccc1-c1csc(C(C)Nc2nc(C)nc3cc(OC)c(OC)cc23)c1 | > 10 | > 10 | > 10 | 0.064 | < 0.0316 | 106 | 103 | 86.8 | 85.8 | 110 | 100 | 101 | 90 | 87.3 | 106 | 103 | 48.9 | 53.7 | 0.26 | 0.24 | viability, T/C [5]: 91.7%; viability, T/C [6]: 88.9%; viability, T/C [11]: 87.3%; viability, T/C [12]: 78.1%; viability, T/C [16]: 88.4%; viability, T/C [17]: 79%; viability, T/C [18]: 64.3%; viability, T/C [21]: 42.8%; viability, T/C [22]: 38.2%; viability, T/C [23]: 34.8%; viability, T/C [24]: 27.7%; viability, T/C [27]: 0.23%; viability, T/C [28]: 0.18%; viability, T/C [29]: 0.18%; viability, T/C [30]: 0.29%
5 | Cn1nccc1Nc1nccc(-c2cc3c(s2)C(C)(C)N(CCN2CCOCC2)C3=O)n1 + CNCc1ccccc1-c1csc(C(C)Nc2nc(C)nc3cc(OC)c(OC)cc23)c1 | 2.14 | 1.52 | 0.863 | < 0.0316 | < 0.0316 | 97.5 | 102 | 87.6 | 74.6 | 106 | 89.2 | 84 | 60.7 | 87.7 | 73.2 | 67.9 | 44.4 | 46.3 | 0.25 | 0.16 | viability, T/C [5]: 37.1%; viability, T/C [6]: 23.8%; viability, T/C [11]: 31.8%; viability, T/C [12]: 19.4%; viability, T/C [16]: 49.8%; viability, T/C [17]: 24%; viability, T/C [18]: 10%; viability, T/C [21]: 29.3%; viability, T/C [22]: 0.46%; viability, T/C [23]: 0.39%; viability, T/C [24]: 0.26%; viability, T/C [27]: 0.15%; viability, T/C [28]: 0.14%; viability, T/C [29]: 0.39%; viability, T/C [30]: 0.2%
6 | Cn1ncnc1[C@H]1c2n[nH]c(=O)c3cc(F)cc(c23)N[C@@H]1c1ccc(F)cc1 + CNCc1ccccc1-c1csc(C(C)Nc2nc(C)nc3cc(OC)c(OC)cc23)c1 | > 0.1 | > 0.1 | > 0.1 | < 0.000316 | < 0.000316 | 110 | 99.8 | – | – | 108 | 79.5 | – | – | 92.3 | 78.5 | – | 28.2 | 34.9 | 0.15 | 0.24 | viability, T/C (second compound 0.1 µM, first compound 0.000316 µM): 103%; viability, T/C (second compound 0.1 µM, first compound 0.001 µM): 108%; viability, T/C [36]: 114%; viability, T/C [31]: 84.5%; viability, T/C (second compound 0.316 µM, first compound 0.000316 µM): 93.2%; viability, T/C (second compound 0.316 µM, first compound 0.001 µM): 96.4%; viability, T/C [37]: 105%; viability, T/C [32]: 94.5%; viability, T/C (second compound 1 µM, first compound 0.000316 µM): 94.4%; viability, T/C (second compound 1 µM, first compound 0.001 µM): 91.9%; viability, T/C [38]: 87.4%; viability, T/C [33]: 94.3%; viability, T/C (second compound 3.16 µM, first compound 0.000316 µM): 28.7%; viability, T/C (second compound 3.16 µM, first compound 0.001 µM): 41.5%; viability, T/C [39]: 30.3%; viability, T/C [34]: 38.9%; viability, T/C (second compound 10 µM, first compound 0.000316 µM): 0.15%; viability, T/C (second compound 10 µM, first compound 0.001 µM): 0.19%; viability, T/C [40]: 0.15%; viability, T/C [35]: 0.14%
